# Measurements from ChEMBL document CHEMBL5614421, “Structure-activity relationship study of Pseudellone C as anti-glioma agents by targeting TNF/TNFR signaling pathway” (Eur J Med Chem, 2024).
# Calls of active or inactive are those of the source. The calls are words filed in the database; no cut-off is given here.
# Legend:
# [1] = test system: U-87 MG; experiment: Induction of apoptosis in human U-87 MG cells assessed as necrotic cells at 20 uM incubated for 24 hrs in presence of R7050 by Annexin V-APC/7-AAD staining based flow cytometric analysis (reference value: 3.85 %); type: functional, U-87MG ATCC
# [2] = Drug concentration in C57BL/6J mouse brain at 9 mg/kg,iv administration measured after 30 mins by LC-MS analysis; type: ADME, organism-based; conditions: read-out: Ct
# [3] = test system: LN-229; experiment: Induction of apoptosis in human LN-229 cells assessed as viable cells at 10 uM incubated for 24 hrs by Annexin V-APC/7-AAD staining based flow cytometric analysis (reference value: 95.4 %); type: functional; conditions: read-out: Activity
# [4] = test system: U-87 MG; experiment: Antiproliferative activity against human U-87 MG cells assessed as inhibition of cell growth incubated for 68 hrs by CCK-8 assay; type: functional, cell-based, U-87MG ATCC
# [5] = test system: U-87 MG; experiment: Induction of apoptosis in human U-87 MG cells assessed as late apoptotic cells at 20 uM incubated for 24 hrs in presence of R7050 by Annexin V-APC/7-AAD staining based flow cytometric analysis (reference value: 7.7 %); type: functional, U-87MG ATCC
# [6] = test system: U-87 MG; experiment: Induction of apoptosis in human U-87 MG cells assessed as viable cells at 5 uM incubated for 24 hrs by Annexin V-APC/7-AAD staining based flow cytometric analysis (reference value: 94 %); type: functional, U-87MG ATCC; conditions: read-out: Activity
# [7] = test system: U-87 MG; experiment: Induction of apoptosis in human U-87 MG cells assessed as viable cells at 10 uM incubated for 24 hrs by Annexin V-APC/7-AAD staining based flow cytometric analysis (reference value: 94 %); type: functional, U-87MG ATCC; conditions: read-out: Activity
# [8] = test system: U-87 MG; experiment: Induction of apoptosis in human U-87 MG cells assessed as viable cells at 20 uM incubated for 24 hrs by Annexin V-APC/7-AAD staining based flow cytometric analysis (reference value: 94 %); type: functional, U-87MG ATCC; conditions: read-out: Activity
# [9] = test system: U-87 MG; experiment: Induction of apoptosis in human U-87 MG cells assessed as necrotic cells at 10 uM incubated for 24 hrs by Annexin V-APC/7-AAD staining based flow cytometric analysis (reference value: 0.21 %); type: functional, U-87MG ATCC
# [10] = test system: U-87 MG; experiment: Induction of apoptosis in human U-87 MG cells assessed as necrotic cells at 20 uM incubated for 24 hrs by Annexin V-APC/7-AAD staining based flow cytometric analysis (reference value: 0.21 %); type: functional, U-87MG ATCC
# [11] = test system: LN-229; experiment: Induction of apoptosis in human LN-229 cells assessed as viable cells at 20 uM incubated for 24 hrs by Annexin V-APC/7-AAD staining based flow cytometric analysis (reference value: 95.4 %); type: functional; conditions: read-out: Activity
# [12] = test system: LN-229; experiment: Induction of apoptosis in human LN-229 cells assessed as early apoptotic cells at 10 uM incubated for 24 hrs by Annexin V-APC/7-AAD staining based flow cytometric analysis (reference value: 0.45 %); type: functional
# [13] = test system: LN-229; experiment: Induction of apoptosis in human LN-229 cells assessed as necrotic cells at 5 uM incubated for 24 hrs by Annexin V-APC/7-AAD staining based flow cytometric analysis (reference value: 0.56 %); type: functional
# [14] = test system: U-87 MG; experiment: Induction of apoptosis in human U-87 MG cells assessed as viable cells at 20 uM incubated for 48 hrs by Annexin V-APC/7-AAD staining based flow cytometric analysis (reference value: 94.6 %); type: functional, U-87MG ATCC; conditions: read-out: Activity
# [15] = test system: U-87 MG; experiment: Induction of apoptosis in human U-87 MG cells assessed as early apoptotic cells at 20 uM incubated for 48 hrs by Annexin V-APC/7-AAD staining based flow cytometric analysis (reference value: 0.94 %); type: functional, U-87MG ATCC
# [16] = test system: U-87 MG; experiment: Induction of apoptosis in human U-87 MG cells assessed as late apoptotic cells at 20 uM incubated for 24 hrs by Annexin V-APC/7-AAD staining based flow cytometric analysis (reference value: 3.44 %); type: functional, U-87MG ATCC
# [17] = test system: LN-229; experiment: Induction of apoptosis in human LN-229 cells assessed as viable cells at 20 uM incubated for 12 hrs by Annexin V-APC/7-AAD staining based flow cytometric analysis (reference value: 91.7 %); type: functional; conditions: read-out: Activity
# [18] = test system: LN-229; experiment: Induction of apoptosis in human LN-229 cells assessed as early apoptotic cells at 20 uM incubated for 24 hrs by Annexin V-APC/7-AAD staining based flow cytometric analysis (reference value: 2.46 %); type: functional
# [19] = test system: LN-229; experiment: Induction of apoptosis in human LN-229 cells assessed as early apoptotic cells at 20 uM incubated for 48 hrs by Annexin V-APC/7-AAD staining based flow cytometric analysis (reference value: 2.46 %); type: functional
# [20] = test system: LN-229; experiment: Induction of apoptosis in human LN-229 cells assessed as late apoptotic cells at 20 uM incubated for 48 hrs by Annexin V-APC/7-AAD staining based flow cytometric analysis (reference value: 5.1 %); type: functional
# [21] = test system: LN-229; experiment: Induction of apoptosis in human LN-229 cells assessed as necrotic cells at 20 uM incubated for 48 hrs by Annexin V-APC/7-AAD staining based flow cytometric analysis (reference value: 0.7 %); type: functional
# [22] = test system: U-87 MG; experiment: Induction of apoptosis in human U-87 MG cells assessed as necrotic cells at 20 uM incubated for 24 hrs by Annexin V-APC/7-AAD staining based flow cytometric analysis (reference value: 3.85 %); type: functional, U-87MG ATCC
# [23] = test system: U-87 MG; experiment: Induction of apoptosis in human U-87 MG cells assessed as early apoptotic cells at 20 uM incubated for 24 hrs in presence of R7050 by Annexin V-APC/7-AAD staining based flow cytometric analysis (reference value: 3.44 %); type: functional, U-87MG ATCC
# [24] = test system: LN-229; experiment: Induction of apoptosis in human LN-229 cells assessed as early apoptotic cells at 20 uM incubated for 24 hrs by Annexin V-APC/7-AAD staining based flow cytometric analysis (reference value: 0.91 %); type: functional
# [25] = test system: LN-229; experiment: Induction of apoptosis in human LN-229 cells assessed as late apoptotic cells at 20 uM incubated for 24 hrs by Annexin V-APC/7-AAD staining based flow cytometric analysis (reference value: 4.86 %); type: functional
# [26] = test system: LN-229; experiment: Induction of apoptosis in human LN-229 cells assessed as necrotic cells at 20 uM incubated for 24 hrs by Annexin V-APC/7-AAD staining based flow cytometric analysis (reference value: 1.95 %); type: functional
# [27] = test system: LN-229; experiment: Induction of apoptosis in human LN-229 cells assessed as necrotic cells at 20 uM incubated for 24 hrs in presence of R7050 by Annexin V-APC/7-AAD staining based flow cytometric analysis (reference value: 1.95 %); type: functional
# [28] = test system: LN-229; experiment: Induction of apoptosis in human LN-229 cells at 10 uM incubated for 48 hrs by Annexin V-APC/7-AAD staining based flow cytometric analysis (reference value: 7.32 +/- 0.71 %); type: functional
# [29] = test system: LN-229; experiment: Induction of apoptosis in human LN-229 cells assessed as upregulation of cleaved caspase-3 expression incubated for 24 hrs by Western blot analysis; type: functional, cell-based
# [30] = test system: LN-229; experiment: Induction of apoptosis in human LN-229 cells assessed as reduction in Bcl-2/Bax ratio at 5 to 20 uM incubated for 24 hrs by Western blot analysis; type: functional, cell-based; conditions: dose 5-20 µM
# [31] = test system: U-87 MG; experiment: Induction of apoptosis in human U-87 MG cells at 20 uM incubated for 24 hrs by Annexin V-APC/7-AAD staining based flow cytometric analysis relative to control; type: functional, U-87MG ATCC
# [32] = test system: LN-229; experiment: Induction of apoptosis in human LN-229 cells at 20 uM incubated for 24 hrs in presence of R7050 by Annexin V-APC/7-AAD staining based flow cytometric analysis relative to control; type: functional
structure (smiles),measurement,setting,value
CCCCCCCNC(=O)[C@H](Cc1c[nH]c2ccccc12)NC(=O)C(C)(c1c[nH]c2ccccc12)c1c[nH]c2ccccc12,Activity,[1],0.86%
same,concentration at 0.5 h,[2],241 ng/g
same,viability at 10 µM,[3],88.1%
same,IC50,[4],8.2 µM
same,Activity,[5],2.87%
same,viability at 5 µM,[6],92.9%
same,viability at 10 µM,[7],89.2%
same,viability at 20 µM,[8],74.3%
same,Activity,[9],0.21%
same,Activity,[10],0.47%
same,viability at 20 µM,[11],79.8%
same,Activity,[12],3.58%
same,Activity,[13],0.46%
same,viability at 20 µM,[14],78.7%
same,Activity,[15],5.06%
same,Activity,[16],4.03%
same,viability at 20 µM,[17],92.7%
same,Activity,[18],13%
same,Activity,[19],18.5%
same,Activity,[20],41.9%
same,Activity,[21],1.9%
same,Activity,[22],8.66%
same,Activity,[23],8.66%
same,Activity,[24],24.2%
same,Activity,[25],7.62%
same,Activity,[26],1.94%
same,Activity,[27],1.25%
same,Activity,[28],61.42%
same,Activity,[29],Dose-Dependent Effect
same,Activity,[30],Active
same,Activity,[31],24.89%
same,Activity,[32],22.79%
